One data set relates to aquatic insects. The note with it: cited from earlier work.
The test system of a further data set is Spodoptera littoralis. Description: Insecticidal leaf dip bioassay on S. littoralis larvae (castor bean leaf discs). In kind it is in vivo, Spodoptera littoralis (cotton leafworm, laboratory strain). The conditions noted are these: for Toxicity index %: 72 hours, fenoxycarb's LC50 / compound's LC50 * 100; for LC50: Spodoptera littoralis, in Gossypium hirsutum, foliar, 72 h. The protocol:
Five concentrations (200, 100, 50, 25, 12.5 ppm) were designed for this synthetic compound and the reference fenoxycarb's compound as the dynamic ingredients based on ppm via diluting the commercial formulation.
In this experiment, the synthetic compound was tested for its insecticidal bioactivity using the industry-standard leaf dip bioassay techniques. Preparation of the compound stocks to create […], 0.1 g of compounds 2 were dissolved in five mL of Dimethyl formamide & combined with 5 mL of distilled water. Until usage, the stocks were kept in a refrigerator. The target substance test results were noted & the concentrations needed to destroy 50% (LC50) of S. littoralis larvae were calculated. The target compound was employed in five different concentrations, and 0.1% Tween 80 was employed as a surfactant. Castor bean leaf discs (nine centimeters in diameter) were dipped in the concentration under test for ten seconds, then fed to 2th and 4th larvae, which were roughly the same size and housed in glass jars (five pound). Each action carried out 3 times with ten larvae each. The mortality equalized via Abbott's formula. Calculations of mortality setback line were measurably rummage via probity analysis. Harmfulness index was strongminded via sun equations. The mortality results of larval insect were estimated through employing probit analysis through a statistics (LDP-line) equation which estimate the LC50 values with 95% fiducially limits of lower, upper confidence limit and slope.

Values after ≈ are worked out from the molar mass of the structure shown. Read-outs that look alike come from different tables or passages of the source.

Take `CCc1ccc(C(=O)NN(C(=O)c2cc(C)cc(C)c2)C(C)(C)C)cc1` [tebufenozide]: in the data set on aquatic insects, the LC50 was 100 to 1000 µg/mL.
As for `CC(CNC(=O)c1cc([N+](=O)[O-])cc([N+](=O)[O-])c1)OC(=S)Nc1ccc(Cl)cc1` (stereo not shown) [Compound 2, O-{1-[(3,5-dinitrobenzoyl)amino]propan-2-yl} (4-chlorophenyl)carbamothioate], the Toxicity index % in the data set with Spodoptera littoralis (2nd instar larvae) was determined as 47.52%; in the data set with Spodoptera littoralis (4th instar larvae), 88.23%. For the same molecule, in the data set on Spodoptera littoralis (2nd instar larvae, after 72 hours of treatment, leaf dip), the “LC50 (mg/L) at 95%” value is “about 12.505 mg/L”. Moreover, the LC50 in the data set with Spodoptera littoralis (2nd instar larvae, after 72 hours of treatment, leaf dip, read-out: LC50 (mg/L) at 95%) is 12.5 mg/L (≈ 28.5 µM); with Spodoptera littoralis (4th instar larvae, after 72 hours of treatment, leaf dip, read-out: LC50 (mg/L) at 95%), about 67.9 mg/L (≈ 155 µM).
Turning to `CCOC(=O)NCCOc1ccc(Oc2ccccc2)cc1` [fenoxycarb], the Toxicity index % in the data set with Spodoptera littoralis (2nd instar larvae) and with Spodoptera littoralis (4th instar larvae) was 100% in each case. For the same molecule, the LC50 in the data set with Spodoptera littoralis (read-out: LC50 (mg/L) at 95%, 2nd instar larvae, after 72 hours of treatment, leaf dip) was found to be 5.94 mg/L (≈ 19.7 µM); in the data set on Spodoptera littoralis (read-out: LC50 (mg/L) at 95%, 4th instar larvae, after 72 hours of treatment, leaf dip) it was 59.9 mg/L (≈ 199 µM).

The values are drawn from patent US11998014B1, “O-{1-[(3,5-dinitrobenzoyl)amino]propan-2-yl} (4-chlorophenyl)carbamothioate as an eco-friendly insecticidal agent against Spodoptera littoralis (boisd.)” (KING FAISAL UNIVERSITY, priority 2024, dated 2024).
